Measured values from patent US12435060B2, “Acylamino bridged heterocyclic compound, and composition and application thereof” (BEIJING SCITECH-MQ PHARMACEUTICALS LIMITED, priority 2019, dated 2025).

System: HT29 cells
Experiment: Inhibition of cell necrosis (CCK8 method), induced programmed necrosis of HT29 cells
Type: cell-based
Conditions: Homo sapiens, HT-29; rescue from necrosis induced by TNF-α 20 ng/mL, AT-406 1 μM, Z-VAD-FMK 20 μM; 16-20 hours; CCK-8, OD 450 nm
How it was run: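 Rescue from programmed necrosis was scored by CCK-8 absorbance at 450 nm after 16-20 h of TNF-α (20 ng/mL), AT-406 (1 μM) and Z-VAD-FMK (20 μM) at 37 °C, 5% CO2. HT29 cells had received compound 30 min earlier across nine 4-fold dilutions (top 25000 nM final). IC50 came from % inhibition relative to uninduced and induced-only wells.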

| SMILES | IC50 |
| --- | --- |
| Cc1ccc(OCC2CCOCC2)cc1-c1cc(NC(=O)c2nnc(CC3CCCCC3)[nH]2)ncc1F [Example 497, 5-(cyclohexylmethyl)-N-(5-fluoro-4-(2-methyl-5-((tetrahydro-2H-pyran-4-yl)methoxy)phenyl)pyridin-2-yl)-4H-1,2,4-triazole-3-carboxamide] | ≤ 100 nM |
| CC(C)(O)CCCOc1ccc(Cl)c(-c2cc(NC(=O)c3nnc(Cc4ccccc4F)[nH]3)ncc2F)c1 [Example 409] | ≤ 100 nM |
| Cc1cnc(NC(=O)c2nnc(CC3CCCCC3)[nH]2)cc1-c1cc(OCC2CCOCC2)ccc1F [Example 332, 5-(cyclohexylmethyl)-N-(4-(2-fluoro-5-((tetrahydro-2H-pyran-4-yl)methoxy)phenyl)-5-methylpyridin-2-yl)-4H-1,2,4-triazole-3-carboxamide] | 1000 to 10000 nM |
| Cc1ccc(OCCCC(C)(C)O)cc1-c1cc(NC(=O)c2nnc(Cc3ccccc3F)[nH]2)ncc1C [Example 240, 5-(2-fluorobenzyl)-N-(4-(5-((4-hydroxy-4-methylpentyl)oxy)-2-methylphenyl)-5-methylpyridin-2-yl)-4H-1,2,4-triazole-3-carboxamide] | 100 to 1000 nM |
| O=C(Nc1cc(-c2cc(OCCCCCO)ccc2Cl)ccn1)c1nnc(Cc2ccccc2F)[nH]1 [Example 376, 5-(2-fluorobenzyl)-N-(4-(2-chloro-5-((5-hydroxypentyl)oxy)phenyl)pyridin-2-yl)-4H-1,2,4-triazole-3-carboxamide] | ≤ 100 nM |
| O=C(Nc1cc(-c2cc(OCCCCCO)ccc2C(F)(F)F)ccn1)c1nnc(Cc2ccccc2)[nH]1 [Example 275, 5-benzyl-N-(4-(5-((5-hydroxypentyl)oxy)-2-(trifluoromethyl)phenyl)pyridin-2-yl)-4H-1,2,4-triazole-3-carboxamide] | ≤ 100 nM |
| Cc1ccc(OCCCCC(C)(C)O)cc1-c1cc(NC(=O)c2nnc(CC3CCCCC3)[nH]2)ncc1F [Example 495, 5-(cyclohexylmethyl)-N-(5-fluoro-4-(5-((5-hydroxyl-5-methylhexyl)oxy)-2-methylphenyl)pyridin-2-yl)-4H-1,2,4-triazole-3-carboxamide] | ≤ 100 nM |
| Cc1cc(F)c(OCCCC(C)(C)O)cc1-c1ccnc(NC(=O)c2nnc(Cc3ccccc3)[nH]2)c1 [Example 237, 5-benzyl-N-(4-(4-fluoro-5-((4-hydroxy-4-methylpentyl)oxy)-2-methylphenyl)pyridin-2-yl)-4H-1,2,4-triazole-3-carboxamide] | ≤ 100 nM |
| Cc1cc(C(C)(C)O)ccc1-c1ccnc(NC(=O)c2nnc(Cc3ccccc3)[nH]2)c1 [Example 161, 5-benzyl-N-(4-(4-(2-hydroxypropan-2-yl)-2-methylphenyl)pyridin-2-yl)-4H-1,2,4-triazole-3-carboxamide] | 100 to 1000 nM |
| CC(C)(O)COc1ccc(Cl)c(-c2ccnc(NC(=O)c3nnc(CC4CCCC4)[nH]3)c2)c1 [Example 365, N-(4-(2-chloro-5-(2-hydroxyl-2-methylpropoxy)phenyl)pyridin-2-yl)-5-(cyclopentylmethyl)-4H-1,2,4-triazole-3-carboxamide] | ≤ 100 nM |
| Cc1ccc(OCCCC(C)(C)O)cc1-c1ccnc(NC(=O)c2nnc(Cc3ccccc3)[nH]2)c1 [Example 160, 5-benzyl-N-(4-(5-((4-hydroxy-4-methylpentyl)oxy)-2-methylphenyl)pyridin-2-yl)-4H-1,2,4-triazole-3-carboxamide] | ≤ 100 nM |
| COCCCOc1ccc(C(F)(F)F)c(-c2ccnc(NC(=O)c3nnc(CC4CCCCC4)[nH]3)c2)c1 [Example 298, 5-(cyclohexylmethyl)-N-(4-(5-(3-methoxypropoxy)-2-(trifluoromethyl)phenyl)pyridin-2-yl)-4H-1,2,4-triazole-3-carboxamide] | ≤ 100 nM |
| Cc1ccc(OCCCCC#N)cc1-c1ccnc(NC(=O)c2nnc(Cc3ccccc3)[nH]2)c1 [Example 91, 5-benzyl-N-(4-(5-(4-cyanobutoxy)-2-methylphenyl)pyridin-2-yl)-4H-1,2,4-triazole-3-carboxamide] | ≤ 100 nM |
| Cc1ccc(OCCOCC(C)C)cc1-c1ccnc(NC(=O)c2nnc(Cc3ccccc3)[nH]2)c1 [Example 70, 5-benzyl-N-(4-(5-(2-isobutoxyethoxy)-2-methylphenyl)pyridin-2-yl)-4H-1,2,4-triazole-3-carboxamide] | ≤ 100 nM |
| Cc1ccc(C(C)(C)O)cc1-c1ccnc(NC(=O)c2nnc(Cc3ccccc3)[nH]2)c1 [Example 199, 5-benzyl-N-(4-(5-(2-hydroxypropan-2-yl)-2-methylphenyl)pyridin-2-yl)-4H-1,2,4-triazole-3-carboxamide] | 1000 to 10000 nM |
| Cc1cnc(NC(=O)c2nnc(CC3CCCCC3)[nH]2)cc1-c1cc(OCCC2CCOCC2)ccc1F [Example 336, 5-(cyclohexylmethyl)-N-(4-(2-fluoro-5-(2-(tetrahydro-2H-pyran-4-yl)ethoxy)phenyl)-5-methylpyridin-2-yl)-4H-1,2,4-triazole-3-carboxamide] | 1000 to 10000 nM |

| SMILES | IC50 |
| --- | --- |
| CC(C)(O)CCCOc1ccc(Cl)c(-c2ccnc(NC(=O)c3nnc(Cc4ccc(F)c(Cl)c4F)[nH]3)c2)c1 [Example 501, 5-(3-chloro-2,4-difluorobenzyl)-N-(4-(2-chloro-5-((4-hydroxy-4-methylpentyl)oxy)phenyl)pyridin-2-yl)-4H-1,2,4-triazole-3-carboxamide] | 100 to 1000 nM |
| O=C(Nc1cc(-c2cc(OCCC3CCOCC3)ccc2C(F)(F)F)ccn1)c1nnc(CC2CCCCC2)[nH]1 [Example 310, 5-(cyclohexylmethyl)-N-(4-(5-(2-(tetrahydro-2H-pyran-4-yl)ethoxy)-2-(trifluoromethyl)phenyl)pyridin-2-yl)-4H-1,2,4-triazole-3-carboxamide] | ≤ 100 nM |
| COCCCOc1ccc(C)c(-c2ccnc(NC(=O)c3nnc(Cc4ccccc4)[nH]3)c2)c1 [Example 141, 5-benzyl-N-(4-(5-(3-methoxypropoxy)-2-methylphenyl)pyridin-2-yl)-4H-1,2,4-triazole-3-carboxamide] | ≤ 100 nM |
| CC(C)(O)COc1ccc(Cl)c(-c2ccnc(NC(=O)c3nnc(Cc4ccccc4)[nH]3)c2)c1 [Example 363, 5-benzyl-N-(4-(2-chloro-5-(2-hydroxyl-2-methylpropoxy)phenyl)pyridin-2-yl)-4H-1,2,4-triazole-3-carboxamide] | ≤ 100 nM |
| CC(C)(O)CCCOc1ccc(Cl)c(-c2ccnc(NC(=O)c3nnc(CN4CCCC4)[nH]3)c2)c1 [Example 358, N-(4-(2-chloro-5-((4-hydroxy-4-methylpentyl)oxy)phenyl)pyridin-2-yl)-5-(pyrrolidin-1-ylmethyl)-4H-1,2,4-triazole-3-carboxamide] | > 10000 nM |
| Cc1ncc(OCCOC(C)C)cc1-c1ccnc(NC(=O)c2nnc(Cc3ccccc3)[nH]2)c1 [Example 132, 5-benzyl-N-(5-(2-isopropoxyethoxy)-2-methyl-[3,4′-dipyridine]-2′-yl)-4H-1,2,4-triazole-3-carboxamide] | 100 to 1000 nM |
| COc1ccc(C(C)C)cc1-c1ccnc(NC(=O)c2nnc(Cc3ccccc3)[nH]2)c1 [Example 17, 5-benzyl-N-(4-(5-isopropyl-2-methoxyphenyl)pyridin-2-yl)-4H-1,2,4-triazole-3-carboxamide] | > 10000 nM |
| CC(C)(O)CCCCOc1ccc(Cl)c(-c2cc(NC(=O)c3nnc(CC4CCCCC4)[nH]3)ncc2F)c1 [Example 502, N-(4-(2-chloro-5-((5-hydroxyl-5-methylhexyl)oxy)phenyl)-5-fluoropyridin-2-yl)-5-(cyclohexylmethyl)-4H-1,2,4-triazole-3-carboxamide] | ≤ 100 nM |
| Cc1ccc(OCCCN(C)C)cc1-c1ccnc(NC(=O)c2nnc(Cc3ccccc3)[nH]2)c1 [Example 139, 5-benzyl-N-(4-(5-(3-(dimethylamino)propoxy)-2-methylphenyl)pyridin-2-yl)-4H-1,2,4-triazole-3-carboxamide] | > 10000 nM |
| Cc1ccc(OCC2CCOCC2)cc1-c1cc(NC(=O)c2nnc(CC3CCCCC3)[nH]2)ncc1Cl [Example 250, N-(5-chloro-4-(2-methyl-5-((tetrahydro-2H-pyran-4-yl)methoxy)phenyl)pyridin-2-yl)-5-(cyclohexylmethyl)-4H-1,2,4-triazole-3-carboxamide] | ≤ 100 nM |
| Cc1ccc(OCCCC(C)(C)O)cc1-c1cc(NC(=O)c2nnc(Cc3ccccc3F)[nH]2)ncc1Cl [Example 238, N-(5-chloro-4-(5-((4-hydroxy-4-methylpentyl)oxy)-2-methylphenyl)pyridin-2-yl)-5-(2-fluorobenzyl)-4H-1,2,4-triazole-3-carboxamide] | ≤ 100 nM |
| CCN(CC)CCOc1ccc(C)c(-c2ccnc(NC(=O)c3nnc(Cc4ccccc4)[nH]3)c2)c1 [Example 135, 5-benzyl-N-(4-(5-(2-(diethylamino)ethoxy)-2-methylphenyl)pyridin-2-yl)-4H-1,2,4-triazole-3-carboxamide] | ≤ 100 nM |
| Cc1ccc(OCCC2CCCCCC2)cc1-c1ccnc(NC(=O)c2nnc(Cc3ccccc3)[nH]2)c1 [Example 225, 5-benzyl-N-(4-(5-(2-cycloheptylethoxy)-2-methylphenyl)pyridin-2-yl)-4H-1,2,4-triazole-3-carboxamide] | ≤ 100 nM |
| COc1ccc(C)nc1-c1ccnc(NC(=O)c2nnc(Cc3ccccc3)[nH]2)c1 [Example 60, 5-benzyl-N-(3-methoxy-6-methyl-[2,4′-bipyridin]-2′-yl)-4H-1,2,4-triazole-3-carboxamide] | > 10000 nM |
| CC(C)(O)CCCOc1ccc(Cl)c(-c2ccnc(NC(=O)c3nnc(Cc4cc(F)cc(F)c4F)[nH]3)c2)c1 [Example 352, N-(4-(2-chloro-5-((4-hydroxy-4-methylpentyl)oxy)phenyl)pyridin-2-yl)-5-(2,3,5-trifluorobenzyl)-4H-1,2,4-triazole-3-carboxamide] | 100 to 1000 nM |
| Cc1ccc(OCCN2CCN(C)CC2)cc1-c1ccnc(NC(=O)c2nnc(Cc3ccccc3)[nH]2)c1 [Example 136, 5-benzyl-N-(4-(2-methyl-5-(2-(4-methylpiperazin-1-yl)ethoxy)phenyl)pyridin-2-yl)-4H-1,2,4-triazole-3-carboxamide] | ≤ 100 nM |
